Active and inactive are the calls of the source. No cut-off for these calls is given here.
What was measured:
[1] = Drug accumulation in mouse 4T1 cells implanted female BALB/c mouse lung at 0.5 mg/kg, iv by fluorescence detector; format: ADME, organism-based; details: in vivo
[2] = Toxicity in female BALB/c mouse assessed as body weight loss at 0.2 to 1.2 mg/kg, iv administered once daily for 14 consecutive days; format: organism-based; details: in vivo, 336 h, dose 0.2-1.2 mg/kg, time 14 day
[3] = tested on: 4T1; test: Antitumor activity against mouse 4T1 cells implanted in female BALB/c mouse assessed as inhibition of tumor growth at 0.5 mg/kg, iv administered twice a week for 2 weeks measured on day 18; format: functional; parameters: scale not given: the % may be the effect or the level left; details: time 18 day
[4] = Toxicity in iv dosed female BALB/c mouse assessed as maximum tolerated dose administered once daily for 14 consecutive days; format: organism-based; details: in vivo, time 14 day
[5] = Drug accumulation in mouse 4T1 cells implanted female BALB/c mouse kidney at 0.5 mg/kg, iv by fluorescence detector; format: ADME, organism-based; details: in vivo
[6] = tested on: Mus musculus; test: Antitumor activity against mouse 4T1 cells implanted in female BALB/c mouse assessed as increase in body weight at 0.5 mg/kg, iv administered twice a week for 2 weeks; format: functional, organism-based
[7] = tested on: 4T1; test: Antitumor activity against mouse 4T1 cells implanted in female BALB/c mouse assessed as reduction on tumor volume at 0.5 mg/kg, iv administered twice a week for 2 weeks; format: functional, organism-based
[8] = Drug accumulation in mouse 4T1 cells implanted female BALB/c mouse tumor at 0.5 mg/kg, iv after 2 hrs by fluorescence detector; format: ADME, organism-based, Neoplasm; details: in vivo
[9] = tested on: A549; test: Antiproliferative activity against human A549 cells assessed as reduction on cell proliferation measured after 72 hrs by MTT assay; format: functional, cell-based
[10] = tested on: HCT-116; test: Antiproliferative activity against human HCT-116 cells assessed as reduction on cell proliferation measured after 72 hrs by MTT assay; format: functional, cell-based
[11] = tested on: MCF7; test: Antiproliferative activity against human MCF7 cells assessed as reduction on cell proliferation measured after 72 hrs by MTT assay; format: functional, cell-based
[12] = molecular target: T1, albumin (Homo sapiens, UniProt P02768); test: Protein binding in human serum albumin measured after 0.25 mins by HPLC analysis; format: ADME, cell-free; details: read-out: PPB (converted)
T1 sequence (P02768 whole entry): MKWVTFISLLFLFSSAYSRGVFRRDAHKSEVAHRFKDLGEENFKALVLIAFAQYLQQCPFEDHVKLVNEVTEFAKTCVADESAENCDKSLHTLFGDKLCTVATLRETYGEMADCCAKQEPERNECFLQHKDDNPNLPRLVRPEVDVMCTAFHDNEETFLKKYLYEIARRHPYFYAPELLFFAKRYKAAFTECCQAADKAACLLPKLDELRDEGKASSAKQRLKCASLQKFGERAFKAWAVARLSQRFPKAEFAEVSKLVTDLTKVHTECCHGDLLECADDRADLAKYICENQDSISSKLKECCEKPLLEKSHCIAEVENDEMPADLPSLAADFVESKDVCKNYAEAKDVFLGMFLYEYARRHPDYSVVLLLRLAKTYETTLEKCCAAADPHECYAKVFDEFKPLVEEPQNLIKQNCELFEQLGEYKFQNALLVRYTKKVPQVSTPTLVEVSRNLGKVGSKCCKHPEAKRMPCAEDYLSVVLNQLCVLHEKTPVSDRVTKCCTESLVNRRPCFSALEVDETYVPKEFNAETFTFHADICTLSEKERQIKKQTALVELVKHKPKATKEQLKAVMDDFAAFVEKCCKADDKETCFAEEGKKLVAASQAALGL

[13] = molecular target: T1, albumin; test: Protein binding in human serum albumin measured after 8 mins by HPLC analysis; format: ADME, cell-free; details: read-out: PPB (converted)
[14] = Toxicity in female BALB/c mouse assessed as body weight loss at 1 to 10 mg/kg, iv administered once daily for 14 consecutive days; format: organism-based; details: in vivo, 336 h, dose 1-10 mg/kg, time 14 day
[15] = Plasma protein binding in male Sprague-Dawley rat measured after 0.25 mins by HPLC analysis; format: ADME, cell-free; details: read-out: PPB (converted)
[16] = Plasma protein binding in female BALB/c mouse measured after 0.25 mins by HPLC analysis; format: ADME, cell-free; details: read-out: PPB (converted)
[17] = Plasma protein binding in female BALB/c mouse measured after 2 mins by HPLC analysis; format: ADME, cell-free; details: read-out: PPB (converted)
[18] = Plasma protein binding in male Sprague-Dawley rat measured after 2 mins by HPLC analysis; format: ADME, cell-free; details: read-out: PPB (converted)
[19] = Plasma protein binding in human measured after 0.25 mins by HPLC analysis; format: ADME, cell-free; details: read-out: PPB (converted)
[20] = Plasma protein binding in human measured after 2 mins by HPLC analysis; format: ADME, cell-free; details: read-out: PPB (converted)
[21] = tested on: HepG2; test: Antiproliferative activity against human HepG2 cells assessed as reduction on cell proliferation measured after 72 hrs by MTT assay; format: functional, cell-based
[22] = tested on: 4T1; test: Antiproliferative activity against mouse 4T1 cells assessed as reduction on cell proliferation measured after 72 hrs by MTT assay; format: functional, cell-based
[23] = tested on: 4T1; test: Antitumor activity against mouse 4T1 cells implanted in female BALB/c mouse assessed as inhibition of tumor growth at 0.6 mg/kg, iv administered twice a week for 2 weeks measured on day 18; format: functional; parameters: scale not given: the % may be the effect or the level left; details: time 18 day
[24] = tested on: 4T1; test: Antitumor activity against mouse 4T1 cells implanted in female BALB/c mouse assessed as inhibition of tumor growth at 1.2 mg/kg, iv administered twice a week for 2 weeks measured on day 18; format: functional; parameters: scale not given: the % may be the effect or the level left; details: time 18 day
[25] = Toxicity in mouse 4T1 cells implanted in female BALB/c mouse assessed as pathological changes in heart at 0.6 to 1.2 mg/kg, iv by H and E staining based analysis; format: organism-based; details: in vivo, dose 0.6-1.2 mg/kg
[26] = Toxicity in mouse 4T1 cells implanted in female BALB/c mouse assessed as pathological changes in kidney at 0.6 to 1.2 mg/kg, iv by H and E staining based analysis; format: organism-based; details: in vivo, dose 0.6-1.2 mg/kg
[27] = Toxicity in mouse 4T1 cells implanted in female BALB/c mouse assessed as pathological changes in liver at 0.6 to 1.2 mg/kg, iv by H and E staining based analysis; format: organism-based; details: in vivo, dose 0.6-1.2 mg/kg
[28] = Toxicity in mouse 4T1 cells implanted in female BALB/c mouse assessed as pathological changes in lung at 0.6 to 1.2 mg/kg, iv by H and E staining based analysis; format: organism-based; details: in vivo, dose 0.6-1.2 mg/kg
[29] = Toxicity in mouse 4T1 cells implanted in female BALB/c mouse assessed as pathological changes in spleen at 0.6 to 1.2 mg/kg, iv by H and E staining based analysis; format: organism-based; details: in vivo, dose 0.6-1.2 mg/kg
[30] = tested on: 4T1; test: Antitumor activity against mouse 4T1 cells implanted in female BALB/c mouse assessed as tumor cell apoptosis at 0.6 to 1.2 mg/kg, iv by TUNEL staining based fluorescence assay; format: functional, organism-based; details: dose 0.6-1.2 mg/kg
[31] = tested on: 4T1; test: Antitumor activity against mouse 4T1 cells implanted in female BALB/c mouse assessed as inhibition of tumor growth at 0.6 to 1.2 mg/kg, iv by Ki67 staining based assay; format: functional, organism-based; details: dose 0.6-1.2 mg/kg
[32] = Drug distribution in mouse 4T1 cells implanted in female BALB/c mouse assessed as fold change in tumor at 1.2 mg/kg, iv measured after 2 hrs by fluorescence detector; format: ADME, organism-based, Neoplasm; details: in vivo
[33] = Drug distribution in mouse 4T1 cells implanted in female BALB/c mouse assessed as fold change in tumor at 1.2 mg/kg, iv measured after 6 hrs by fluorescence detector; format: ADME, organism-based, Neoplasm; details: in vivo
[34] = Drug distribution in mouse 4T1 cells implanted in female BALB/c mouse assessed as fold change in tumor at 1.2 mg/kg, iv measured after 24 hrs by fluorescence detector; format: ADME, organism-based, Neoplasm; details: in vivo
[35] = tested on: A549; test: Antiproliferative activity against human A549 cells assessed as reduction on cell proliferation in presence of beta-glucuronidase measured after 72 hrs by MTT assay; format: functional, cell-based
[36] = Drug distribution in mouse 4T1 cells implanted in female BALB/c mouse assessed as fold change in tumor at 1.2 mg/kg, iv measured after 48 hrs by fluorescence detector; format: ADME, organism-based, Neoplasm; details: in vivo
[37] = Drug accumulation in mouse 4T1 cells implanted female BALB/c mouse tumor at 1.2 mg/kg, iv after 6 hrs by fluorescence detector; format: ADME, organism-based, Neoplasm; details: in vivo
[38] = tested on: HepG2; test: Antiproliferative activity against human HepG2 cells assessed as reduction on cell proliferation in presence of beta-glucuronidase measured after 72 hrs by MTT assay; format: functional, cell-based
[39] = tested on: 4T1; test: Antiproliferative activity against mouse 4T1 cells assessed as reduction on cell proliferation in presence of beta-glucuronidase measured after 72 hrs by MTT assay; format: functional, cell-based
[40] = tested on: HCT-116; test: Antiproliferative activity against human HCT-116 cells assessed as reduction on cell proliferation in presence of beta-glucuronidase measured after 72 hrs by MTT assay; format: functional, cell-based
[41] = tested on: MCF7; test: Antiproliferative activity against human MCF7 cells assessed as reduction on cell proliferation in presence of beta-glucuronidase measured after 72 hrs by MTT assay; format: functional, cell-based
[42] = tested on: 4T1; test: Antitumor activity against mouse 4T1 cells implanted in female BALB/c mouse assessed as reduction on tumor volume at 0.6 to 1.2 mg/kg, iv administered twice a week for 2 weeks; format: functional, organism-based; details: dose 0.6-1.2 mg/kg
[43] = tested on: Mus musculus; test: Antitumor activity against mouse 4T1 cells implanted in female BALB/c mouse assessed as increase in body weight at 0.6 to 1.2 mg/kg, iv administered twice a week for 2 weeks; format: functional, organism-based; details: dose 0.6-1.2 mg/kg

What does the source list for `CC[C@@]1(O)C(=O)OCc2c1cc1n(c2=O)Cc2c-1nc1cc3c(cc1c2-c1ccncc1)OCO3`?
Drug uptake [1]: Active; Activity [2]: 10%; Activity [3]: 27%; MTD at 336 h [4]: 0.4 mg/kg; Drug uptake [5]: Active; Activity [6]: Active; Activity [7]: Active; Drug uptake [8]: 1.09%

Which Activity [9] does the source give for `CC[C@@]1(O)C(=O)OCc2c1cc1n(c2=O)Cc2c-1nc1cc3c(cc1c2-c1cc[n+](Cc2ccc(O[C@@H]4O[C@@H](C(=O)O)[C@@H](O)[C@H](O)[C@H]4O)c(NC(=O)CCCn4cc(CNC(=O)CCCCCN5C(=O)C=CC5=O)nn4)c2)cc1)OCO3.O=C([O-])C(F)(F)F` here?
The Activity was “Active”.

And the Activity [10]?
The Activity was “Active”.

What about the Activity [11] of the same molecule?
The Activity was “Active”.

What about the fraction unbound at 15 s [12] of the same molecule?
The fraction unbound at 15 s was 0.0679.

What about the fraction unbound at 8 min [13] of the same molecule?
The fraction unbound at 8 min was 0.015.

What about the Activity [14] of the same molecule?
Its Activity is 10%.

And the fraction unbound at 15 s [15]?
Its fraction unbound at 15 s is 0.0224.

And the fraction unbound at 15 s [16]?
The fraction unbound at 15 s was 0.0723.

What about the fraction unbound at 2 min [17] of the same molecule?
Its fraction unbound at 2 min is 0.0512.

And the fraction unbound at 2 min [18]?
Its fraction unbound at 2 min is 0.0188.

And the fraction unbound at 15 s [19]?
The fraction unbound at 15 s was 0.034.

And the fraction unbound at 2 min [20]?
Its fraction unbound at 2 min is 0.0291.

And the Activity [21]?
Its Activity is “Active”.

What about the Activity [22] of the same molecule?
Its Activity is “Active”.

What about the Activity [23] of the same molecule?
Its Activity is 56%.

And the Activity [24]?
Its Activity is 77%.

What about the Activity [25] of the same molecule?
Its Activity is “Non-Toxic”.

And the Activity [26]?
The Activity was “Non-Toxic”.

And the Activity [27]?
The Activity was “Non-Toxic”.

What about the Activity [28] of the same molecule?
The Activity was “Non-Toxic”.

And the Activity [29]?
Its Activity is “Non-Toxic”.

And the Activity [30]?
Its Activity is “Active”.

What about the Activity [31] of the same molecule?
The Activity was “Active”.

And the “fold change (FC)” value [32]?
Its value is 9.

What about the “fold change (FC)” value [33] of the same molecule?
Its value is 18.

And the “fold change (FC)” value [34]?
Its value is 16.

What about the Activity [35] of the same molecule?
The Activity was “Active”.

And the “fold change (FC)” value [36]?
Its value is 14.

What about the MTD at 336 h [4] of the same molecule?
The MTD at 336 h was 2.5 mg/kg.

What about the Drug uptake [37] of the same molecule?
The Drug uptake was 17.34%.

And the Activity [38]?
Its Activity is “Active”.

What about the Activity [39] of the same molecule?
The Activity was “Active”.

What about the Activity [40] of the same molecule?
The Activity was “Active”.

What about the Activity [41] of the same molecule?
Its Activity is “Active”.

And the Activity [42]?
The Activity was “Active”.

And the Activity [43]?
Its Activity is “Active”.

Source: ChEMBL document CHEMBL5038609, “A camptothecin-based, albumin-binding prodrug enhances efficacy and safety in vivo” (Eur J Med Chem, 2021)
